US20250262201A1, “COMPOUNDS AND METHODS USEFUL FOR STABILIZING PHENYLALANINE HYDROXYLASE MUTATIONS” (Agios Pharmaceuticals, Inc., priority 2022, published 2025)

Molecular target: T1, human PAH with the R408W mutation (Homo sapiens, UniProt P00439, R408W)
T1 construct: expressed in transfected cells
T1 sequence (P00439 1-452 R408W): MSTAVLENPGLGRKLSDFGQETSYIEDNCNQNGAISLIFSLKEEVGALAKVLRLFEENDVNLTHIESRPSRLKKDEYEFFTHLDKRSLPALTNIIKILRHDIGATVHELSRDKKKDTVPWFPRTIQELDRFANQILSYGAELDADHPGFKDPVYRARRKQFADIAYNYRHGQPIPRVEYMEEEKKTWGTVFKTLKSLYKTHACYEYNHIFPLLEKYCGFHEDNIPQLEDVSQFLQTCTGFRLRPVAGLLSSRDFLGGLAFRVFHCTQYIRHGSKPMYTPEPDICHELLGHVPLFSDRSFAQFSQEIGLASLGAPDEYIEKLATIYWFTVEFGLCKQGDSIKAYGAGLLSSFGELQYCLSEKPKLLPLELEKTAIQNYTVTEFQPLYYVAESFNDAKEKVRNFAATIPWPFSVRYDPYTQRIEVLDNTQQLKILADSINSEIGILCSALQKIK
Test: Cell Based Phenylalanine Flux Assay
Settings: A375 cells expressing human R408W PAH; 24 hrs compound incubation; 13C-Tyrosine by LC-MS; average where tested multiple times; read-out: AC50
Procedure: Compounds were resuspended in DMSO, and 2-fold serial dilutions were performed to generate a 10-point dose curve. Compounds were added to plated cells in a total volume of 100 pal, and a final DMSO concentration of 0.5%. Each compound was tested in duplicate. Following compound addition, cells were placed in a 5% CO2, 37° C. tissue culture incubator for 24 hrs. After the incubation period, 20 μM sepiapterin and 800 μM 13C9,15N-Phenylalanine were added. After 4 hours, cell media was removed. An aliquot of 10 μl of cell media was combined with 200 μl of extraction buffer (80% acetonitrile/20% H2O) for each well. Determination of ^13C-Tyrosine concentration was assessed by liquid chromatography mass spectrometry.

Compared with `Cc1nc(C(C)(C)O)oc1C(=O)N1C[C@H](C)c2[nH]cnc2[C@@H]1c1cc2ccccc2cn1` [Example 390, (2-(2-hydroxypropan-2-yl)-4-methyloxazol-5-yl)((4S,7S)-4-(isoquinolin-3-yl)-7-methyl-6,7-dihydro-1H-imidazo[4,5-c]pyridin-5(4H)-yl)methanone], `Cc1nc(C(C)(C)O)oc1C(=O)N1C[C@@H](C)c2[nH]cnc2[C@H]1c1cc2ccccc2cn1` [Example 392, (2-(2-hydroxypropan-2-yl)-4-methyloxazol-5-yl)((4R,7R)-4-(isoquinolin-3-yl)-7-methyl-6,7-dihydro-1H-imidazo[4,5-c]pyridin-5(4H)-yl)methanone] is lower in AC50: greater than 5 µM for the first, 0.5 to 1 µM for the second.

`COCc1ncc(C(=O)N2CCc3[nH]cnc3[C@H]2c2cc3ccccc3cn2)s1` [Example 393, (R)-(4-(isoquinolin-3-yl)-6,7-dihydro-1H-imidazo[4,5-c]pyridin-5(4H)-yl)(2-(methoxymethyl)thiazol-5-yl)methanone] and `COCc1ncc(C(=O)N2CCc3[nH]cnc3[C@H]2c2cc3ccccc3cn2)o1` [Example 394, (R)-(4-(isoquinolin-3-yl)-6,7-dihydro-1H-imidazo[4,5-c]pyridin-5(4H)-yl)(2-(methoxymethyl)oxazol-5-yl)methanone] fall in the same range of AC50: 0.5 to 1 µM for the first, 0.5 to 1 µM for the second.

First: C[C@H]1CN(C(=O)c2cnc(C(C)(C)O)o2)[C@H](c2cc3ccccc3cn2)c2nc[nH]c21 [Example 395, (2-(2-hydroxypropan-2-yl)oxazol-5-yl)((4R,7S)-4-(isoquinolin-3-yl)-7-methyl-6,7-dihydro-1H-imidazo[4,5-c]pyridin-5(4H)-yl)methanone]
Second: C[C@H]1CN(C(=O)c2cnc(C(C)(C)O)o2)[C@@H](c2cc3ccccc3cn2)c2nc[nH]c21 [Example 396, (2-(2-hydroxypropan-2-yl)oxazol-5-yl)((4S,7S)-4-(isoquinolin-3-yl)-7-methyl-6,7-dihydro-1H-imidazo[4,5-c]pyridin-5(4H)-yl)methanone]
The AC50 of the first is lower: 0.5 to 1 µM for the first, 1 to 5 µM for the second.

First: C[C@@H]1CN(C(=O)c2cnc(C(C)(C)O)o2)[C@H](c2cc3ccccc3cn2)c2nc[nH]c21 [Example 398, (2-(2-hydroxypropan-2-yl)oxazol-5-yl)((4R,7R)-4-(isoquinolin-3-yl)-7-methyl-6,7-dihydro-1H-imidazo[4,5-c]pyridin-5(4H)-yl)methanone]
Second: C[C@H]1CN(C(=O)c2oc(C(C)(C)O)nc2C2CC2)[C@H](c2cc3ccccc3cn2)c2nc[nH]c21 [Example 399, (4-cyclopropyl-2-(2-hydroxypropan-2-yl)oxazol-5-yl)((4R,7S)-4-(isoquinolin-3-yl)-7-methyl-6,7-dihydro-1H-imidazo[4,5-c]pyridin-5(4H)-yl)methanone]
The AC50 of the first is higher: 1 to 5 µM for the first, less than 0.5 µM for the second.

`C[C@H]1CN(C(=O)c2oc(C(C)(C)O)nc2C2CC2)[C@@H](c2cc3ccccc3cn2)c2nc[nH]c21` [Example 400, (4-cyclopropyl-2-(2-hydroxypropan-2-yl)oxazol-5-yl)((4S,7S)-4-(isoquinolin-3-yl)-7-methyl-6,7-dihydro-1H-imidazo[4,5-c]pyridin-5(4H)-yl)methanone] and `C[C@@H]1CN(C(=O)c2oc(C(C)(C)O)nc2C2CC2)[C@@H](c2cc3ccccc3cn2)c2nc[nH]c21` [Example 401, (4-cyclopropyl-2-(2-hydroxypropan-2-yl)oxazol-5-yl)((4S,7R)-4-(isoquinolin-3-yl)-7-methyl-6,7-dihydro-1H-imidazo[4,5-c]pyridin-5(4H)-yl)methanone] fall in the same range of AC50: 1 to 5 µM for the first, 1 to 5 µM for the second.

`C[C@@H]1CN(C(=O)c2oc(C(C)(C)O)nc2C2CC2)[C@H](c2cc3ccccc3cn2)c2nc[nH]c21` [Example 402, (4-cyclopropyl-2-(2-hydroxypropan-2-yl)oxazol-5-yl)((4R,7R)-4-(isoquinolin-3-yl)-7-methyl-6,7-dihydro-1H-imidazo[4,5-c]pyridin-5(4H)-yl)methanone] and `C[C@H]1CN(C(=O)c2oc(-c3ccccn3)nc2C2CC2)[C@H](c2cc3ccccc3cn2)c2nc[nH]c21` [Example 407, (4-cyclopropyl-2-(pyridin-2-yl)oxazol-5-yl)((4R,7S)-4-(isoquinolin-3-yl)-7-methyl-6,7-dihydro-1H-imidazo[4,5-c]pyridin-5(4H)-yl)methanone] cannot be ordered by AC50: less than 0.5 µM for the first, less than 0.5 µM for the second.

First: Cc1nc(-c2ccccn2)oc1C(=O)N1C[C@H](C)c2[nH]cnc2[C@H]1c1cc2ccccc2cn1 [Example 403, ((4R,7S)-4-(isoquinolin-3-yl)-7-methyl-6,7-dihydro-1H-imidazo[4,5-c]pyridin-5(4H)-yl)(4-methyl-2-(pyridin-2-yl)oxazol-5-yl)methanone]
Second: Cc1nc(-c2ccccn2)oc1C(=O)N1C[C@H](C)c2[nH]cnc2[C@@H]1c1cc2ccccc2cn1 [Example 404, ((4S,7S)-4-(isoquinolin-3-yl)-7-methyl-6,7-dihydro-1H-imidazo[4,5-c]pyridin-5(4H)-yl)(4-methyl-2-(pyridin-2-yl)oxazol-5-yl)methanone]
The AC50 of the first is lower: less than 0.5 µM for the first, greater than 5 µM for the second.

First: Cc1nc(-c2ccccn2)oc1C(=O)N1C[C@@H](C)c2[nH]cnc2[C@@H]1c1cc2ccccc2cn1 [Example 405, [(4S,7R)-4-(3-isoquinolyl)-7-methyl-1,4,6,7-tetrahydroimidazo[4,5-c]pyridin-5-yl]-[4-methyl-2-(2-pyridyl)oxazol-5-yl]methanone]
Second: Cc1nc(-c2ccccn2)oc1C(=O)N1C[C@@H](C)c2[nH]cnc2[C@H]1c1cc2ccccc2cn1 [Example 406, [(4R,7R)-4-(3-isoquinolyl)-7-methyl-1,4,6,7-tetrahydroimidazo[4,5-c]pyridin-5-yl]-[4-methyl-2-(2-pyridyl)oxazol-5-yl]methanone]
The AC50 of the first is higher: 1 to 5 µM for the first, less than 0.5 µM for the second.

Compared with `C[C@H]1CN(C(=O)c2oc(-c3ccccn3)nc2C2CC2)[C@@H](c2cc3ccccc3cn2)c2nc[nH]c21` [Example 408, (4-cyclopropyl-2-(pyridin-2-yl)oxazol-5-yl)((4S,7S)-4-(isoquinolin-3-yl)-7-methyl-6,7-dihydro-1H-imidazo[4,5-c]pyridin-5(4H)-yl)methanone], `C[C@@H]1CN(C(=O)c2oc(-c3ccccn3)nc2C2CC2)[C@H](c2cc3ccccc3cn2)c2nc[nH]c21` [Example 410, (4-cyclopropyl-2-(pyridin-2-yl)oxazol-5-yl)((4R,7R)-4-(isoquinolin-3-yl)-7-methyl-6,7-dihydro-1H-imidazo[4,5-c]pyridin-5(4H)-yl)methanone] is lower in AC50: 0.5 to 1 µM for the first, less than 0.5 µM for the second.

First: CC(C)(F)c1nnc(C(=O)N2CCc3[nH]cnc3[C@H]2c2cc3ccccc3cn2)o1 [Example 419, (R)-(5-(2-fluoropropan-2-yl)-1,3,4-oxadiazol-2-yl)(4-(isoquinolin-3-yl)-6,7-dihydro-1H-imidazo[4,5-c]pyridin-5(4H)-yl)methanone]
Second: CC(C)(O)c1noc(C(=O)N2CCc3[nH]cnc3[C@H]2c2cc3ccccc3cn2)n1 [Example 422, (R)-(3-(2-hydroxypropan-2-yl)-1,2,4-oxadiazol-5-yl)(4-(isoquinolin-3-yl)-6,7-dihydro-1H-imidazo[4,5-c]pyridin-5(4H)-yl)methanone]
The AC50 of the first is lower: less than 0.5 µM for the first, 1 to 5 µM for the second.

Compared with `O=C(C1CN(CC(F)(F)F)C1)N1CCc2[nH]cnc2[C@H]1c1cc2ccccc2cn1` [Example 420, (R)-(4-(isoquinolin-3-yl)-6,7-dihydro-1H-imidazo[4,5-c]pyridin-5(4H)-yl)(1-(2,2,2-trifluoroethyl)azetidin-3-yl)methanone], `O=C(c1nnc(N2CC(F)C2)o1)N1CCc2[nH]cnc2[C@H]1c1cc2ccccc2cn1` [Example 424, (R)-(5-(3-fluoroazetidin-1-yl)-1,3,4-oxadiazol-2-yl)(4-(isoquinolin-3-yl)-6,7-dihydro-1H-imidazo[4,5-c]pyridin-5(4H)-yl)methanone] is lower in AC50: 1 to 5 µM for the first, less than 0.5 µM for the second.

Compared with `CC(C)(O)c1nc(C(=O)N2CCc3[nH]cnc3[C@H]2c2cc3ccccc3cn2)no1` [Example 421, (R)-(5-(2-hydroxypropan-2-yl)-1,2,4-oxadiazol-3-yl)(4-(isoquinolin-3-yl)-6,7-dihydro-1H-imidazo[4,5-c]pyridin-5(4H)-yl)methanone], `Cn1nc(C(F)F)nc1C(=O)N1CCc2[nH]cnc2[C@H]1c1cc2ccccc2cn1` [Example 423, (R)-(3-(difluoromethyl)-1-methyl-1H-1,2,4-triazol-5-yl)(4-(isoquinolin-3-yl)-6,7-dihydro-1H-imidazo[4,5-c]pyridin-5(4H)-yl)methanone] is lower in AC50: 0.5 to 1 µM for the first, less than 0.5 µM for the second.

`O=C(c1nnc(N2CCC(F)CC2)o1)N1CCc2[nH]cnc2[C@H]1c1cc2ccccc2cn1` [Example 425, (R)-(5-(4-fluoropiperidin-1-yl)-1,3,4-oxadiazol-2-yl)(4-(isoquinolin-3-yl)-6,7-dihydro-1H-imidazo[4,5-c]pyridin-5(4H)-yl)methanone] and `O=C(c1nnc(-c2ccn(C(F)F)n2)o1)N1CCc2[nH]cnc2[C@H]1c1cc2ccccc2cn1` [Example 426, (R)-(5-(1-(difluoromethyl)-1H-pyrazol-3-yl)-1,3,4-oxadiazol-2-yl)(4-(isoquinolin-3-yl)-6,7-dihydro-1H-imidazo[4,5-c]pyridin-5(4H)-yl)methanone] cannot be ordered by AC50: less than 0.5 µM for the first, less than 0.5 µM for the second.

Molecule `C[C@H]1CN(C(=O)c2nnc(C(C)(C)C)o2)[C@@H](c2cc3ccccc3cn2)c2nc[nH]c21` [Example 427, (5-(tert-butyl)-1,3,4-oxadiazol-2-yl)((4S,7S)-4-(isoquinolin-3-yl)-7-methyl-6,7-dihydro-1H-imidazo[4,5-c]pyridin-5(4H)-yl)methanone] has an AC50 of 1 to 5 µM.
